Here are results for one compound from patent publication US12590087B2, “Inhibiting USP36” (Valo Health, Inc., priority 2019, dated 2026).

The target of the experiment is T1, human USP36 (81-461) (Homo sapiens, UniProt Q9P275).
T1 sequence (Q9P275 81-461): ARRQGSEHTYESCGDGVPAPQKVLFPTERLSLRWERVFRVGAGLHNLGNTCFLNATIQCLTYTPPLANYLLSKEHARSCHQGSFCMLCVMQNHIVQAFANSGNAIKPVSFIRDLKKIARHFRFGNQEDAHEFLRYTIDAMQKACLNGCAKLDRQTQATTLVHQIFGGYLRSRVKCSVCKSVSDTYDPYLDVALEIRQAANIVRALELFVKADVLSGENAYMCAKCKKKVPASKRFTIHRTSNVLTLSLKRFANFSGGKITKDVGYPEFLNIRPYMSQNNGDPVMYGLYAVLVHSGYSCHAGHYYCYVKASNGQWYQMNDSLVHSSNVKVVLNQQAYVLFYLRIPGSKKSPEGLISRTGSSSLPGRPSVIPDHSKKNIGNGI
In words: USP36 inhibition biochemical assay. The conditions noted are these: read-out: USP 36 IC50; 2 nM human USP36 (81-461), 25 nM Ub-Rh110MP substrate, 30 minutes preincubation with compound, fluorescence rate over 10 minutes.

Description: Test compounds were serially diluted in DMSO (Sigma, G7516) to obtain 10-point, 3-fold series. […] Enzyme and substrate concentrations and incubation times were optimized for the maximal signal-to-background while maintaining linear initial velocity conditions at a fixed substrate concentration below Km.
Rates were calculated by: rate=((final FLU−initial FLU)/600 seconds) where final FLU=fluorescence at time 10 minutes, initial FLU=fluorescence at time 0 minutes and 600=duration of reaction in seconds.
Data were reported as percent inhibition compared with control wells based on the following equation: % inh=100*((rate−AveLow)/(AveHigh−AveLow)) where rate=measured rate of fluorescence generated during assay, AveLow=average rate of no enzyme control (n=32), and AveHigh=average rate of DMSO control (n=32).
Data were fitted using the Levenburg Marquardt algorithm.

By IC50 is commonly meant the concentration needed to halve the response being measured. `O=C(Nc1snnc1C(=O)Nc1ccc(N2CCCC2)cc1)c1cncc(C(F)(F)F)c1` [Compound 1, N-(4-(pyrrolidin-1-yl)phenyl)-5-(5-(trifluoromethyl)nicotinamido)-1,2,3-thiadiazole-4-carboxamide]: the 50% inhibitory concentration (IC50) was 198 nM.
